Results: patent publication US20080031982A1 (Metaproteomics, LLC, priority 2006, published 2008)

Key:
Experiment in all cases: KinaseProfiler Assay
Rsk1 = system: Rsk1
PKCα = PKCα (Homo sapiens, UniProt P17252)
CDK6/cyclinD3 = CDK6/cyclinD3 (Homo sapiens, UniProt Q00534)
cSRC = cSRC (Homo sapiens, UniProt P12931)
Syk = Syk (Homo sapiens, UniProt P43405)
AMPK = system: AMPK
PhKγ2 = target: T1, PhKγ2 (Homo sapiens, UniProt P15735)
T1 sequence (P15735 1-406): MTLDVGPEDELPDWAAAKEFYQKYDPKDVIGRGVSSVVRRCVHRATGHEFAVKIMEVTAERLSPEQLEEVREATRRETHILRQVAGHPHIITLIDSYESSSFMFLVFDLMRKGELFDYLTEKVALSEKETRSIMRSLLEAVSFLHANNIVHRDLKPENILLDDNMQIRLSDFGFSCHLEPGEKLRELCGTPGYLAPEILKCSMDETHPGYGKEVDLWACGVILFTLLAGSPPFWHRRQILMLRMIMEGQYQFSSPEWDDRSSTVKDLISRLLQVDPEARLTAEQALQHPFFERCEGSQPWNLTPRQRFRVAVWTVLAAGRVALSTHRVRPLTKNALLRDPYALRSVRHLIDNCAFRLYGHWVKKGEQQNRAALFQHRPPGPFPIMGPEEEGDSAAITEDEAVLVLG

CDK1/cyclinB = CDK1/cyclinB (Homo sapiens, UniProt P06493)
PKBα = PKBα (Homo sapiens, UniProt P31749)
Sequence of PKBα (P31749 whole entry): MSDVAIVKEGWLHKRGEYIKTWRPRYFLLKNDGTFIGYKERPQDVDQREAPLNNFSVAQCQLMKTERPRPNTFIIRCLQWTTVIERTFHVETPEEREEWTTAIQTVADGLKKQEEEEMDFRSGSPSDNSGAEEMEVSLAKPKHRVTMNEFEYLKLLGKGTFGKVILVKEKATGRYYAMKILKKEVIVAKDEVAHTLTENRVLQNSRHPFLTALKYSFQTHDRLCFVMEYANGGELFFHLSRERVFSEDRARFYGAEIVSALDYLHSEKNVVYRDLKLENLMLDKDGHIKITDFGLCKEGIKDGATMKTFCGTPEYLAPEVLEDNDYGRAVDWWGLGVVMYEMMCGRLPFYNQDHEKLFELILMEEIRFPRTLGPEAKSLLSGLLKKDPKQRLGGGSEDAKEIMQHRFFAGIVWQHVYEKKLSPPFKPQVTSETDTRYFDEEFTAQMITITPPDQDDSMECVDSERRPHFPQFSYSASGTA

IRAK1 = IRAK1 (Homo sapiens, UniProt P51617)
cKit(D816H) = cKit(D816H) (Homo sapiens, UniProt P10721, D816H)
Sequence of cKit(D816H) (P10721 26-976 D816H): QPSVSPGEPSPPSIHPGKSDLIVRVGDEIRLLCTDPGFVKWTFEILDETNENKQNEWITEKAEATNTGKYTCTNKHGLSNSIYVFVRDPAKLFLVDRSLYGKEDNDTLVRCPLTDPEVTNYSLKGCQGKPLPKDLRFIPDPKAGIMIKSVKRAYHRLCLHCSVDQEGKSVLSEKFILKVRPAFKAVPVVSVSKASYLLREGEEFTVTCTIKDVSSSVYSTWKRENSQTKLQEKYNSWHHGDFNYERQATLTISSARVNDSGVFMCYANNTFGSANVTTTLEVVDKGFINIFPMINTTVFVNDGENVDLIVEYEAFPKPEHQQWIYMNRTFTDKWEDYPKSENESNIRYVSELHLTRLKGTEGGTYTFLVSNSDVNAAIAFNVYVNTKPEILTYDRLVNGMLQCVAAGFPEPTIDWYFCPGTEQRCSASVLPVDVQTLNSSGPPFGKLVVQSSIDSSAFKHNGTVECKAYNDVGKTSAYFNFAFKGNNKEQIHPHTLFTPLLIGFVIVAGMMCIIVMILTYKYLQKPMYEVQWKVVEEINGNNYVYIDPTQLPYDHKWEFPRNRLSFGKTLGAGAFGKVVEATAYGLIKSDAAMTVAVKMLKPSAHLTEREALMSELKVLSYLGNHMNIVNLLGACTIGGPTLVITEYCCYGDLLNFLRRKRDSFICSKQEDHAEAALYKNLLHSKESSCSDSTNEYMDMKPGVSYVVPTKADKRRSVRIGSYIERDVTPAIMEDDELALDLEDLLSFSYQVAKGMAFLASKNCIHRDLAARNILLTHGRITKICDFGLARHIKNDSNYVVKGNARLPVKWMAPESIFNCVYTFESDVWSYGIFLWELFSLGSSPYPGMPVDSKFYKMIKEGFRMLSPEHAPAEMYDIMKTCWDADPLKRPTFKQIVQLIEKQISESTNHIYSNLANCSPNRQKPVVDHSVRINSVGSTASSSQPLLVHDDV

CK1γ3 = CK1γ3 (Homo sapiens, UniProt Q9Y6M4)
Sequence of CK1γ3 (Q9Y6M4 whole entry): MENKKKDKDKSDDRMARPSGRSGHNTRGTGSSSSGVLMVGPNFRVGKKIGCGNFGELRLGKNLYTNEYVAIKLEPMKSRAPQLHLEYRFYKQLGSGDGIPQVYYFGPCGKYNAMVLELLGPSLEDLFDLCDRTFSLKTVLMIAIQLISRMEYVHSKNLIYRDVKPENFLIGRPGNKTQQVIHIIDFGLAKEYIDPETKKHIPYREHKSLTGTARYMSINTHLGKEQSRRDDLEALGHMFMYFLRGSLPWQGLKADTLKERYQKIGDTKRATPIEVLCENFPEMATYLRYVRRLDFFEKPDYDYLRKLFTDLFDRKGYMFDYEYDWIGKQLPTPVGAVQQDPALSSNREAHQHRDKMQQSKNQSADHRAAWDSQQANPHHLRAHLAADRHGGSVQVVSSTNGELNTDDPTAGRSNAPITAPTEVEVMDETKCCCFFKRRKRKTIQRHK

PKA = PKA (Homo sapiens, UniProt P17612)
MSK2 = MSK2 (Homo sapiens, UniProt O75676)
MINK = MINK (Homo sapiens, UniProt Q8N4C8)
Sequence of MINK (Q8N4C8 whole entry): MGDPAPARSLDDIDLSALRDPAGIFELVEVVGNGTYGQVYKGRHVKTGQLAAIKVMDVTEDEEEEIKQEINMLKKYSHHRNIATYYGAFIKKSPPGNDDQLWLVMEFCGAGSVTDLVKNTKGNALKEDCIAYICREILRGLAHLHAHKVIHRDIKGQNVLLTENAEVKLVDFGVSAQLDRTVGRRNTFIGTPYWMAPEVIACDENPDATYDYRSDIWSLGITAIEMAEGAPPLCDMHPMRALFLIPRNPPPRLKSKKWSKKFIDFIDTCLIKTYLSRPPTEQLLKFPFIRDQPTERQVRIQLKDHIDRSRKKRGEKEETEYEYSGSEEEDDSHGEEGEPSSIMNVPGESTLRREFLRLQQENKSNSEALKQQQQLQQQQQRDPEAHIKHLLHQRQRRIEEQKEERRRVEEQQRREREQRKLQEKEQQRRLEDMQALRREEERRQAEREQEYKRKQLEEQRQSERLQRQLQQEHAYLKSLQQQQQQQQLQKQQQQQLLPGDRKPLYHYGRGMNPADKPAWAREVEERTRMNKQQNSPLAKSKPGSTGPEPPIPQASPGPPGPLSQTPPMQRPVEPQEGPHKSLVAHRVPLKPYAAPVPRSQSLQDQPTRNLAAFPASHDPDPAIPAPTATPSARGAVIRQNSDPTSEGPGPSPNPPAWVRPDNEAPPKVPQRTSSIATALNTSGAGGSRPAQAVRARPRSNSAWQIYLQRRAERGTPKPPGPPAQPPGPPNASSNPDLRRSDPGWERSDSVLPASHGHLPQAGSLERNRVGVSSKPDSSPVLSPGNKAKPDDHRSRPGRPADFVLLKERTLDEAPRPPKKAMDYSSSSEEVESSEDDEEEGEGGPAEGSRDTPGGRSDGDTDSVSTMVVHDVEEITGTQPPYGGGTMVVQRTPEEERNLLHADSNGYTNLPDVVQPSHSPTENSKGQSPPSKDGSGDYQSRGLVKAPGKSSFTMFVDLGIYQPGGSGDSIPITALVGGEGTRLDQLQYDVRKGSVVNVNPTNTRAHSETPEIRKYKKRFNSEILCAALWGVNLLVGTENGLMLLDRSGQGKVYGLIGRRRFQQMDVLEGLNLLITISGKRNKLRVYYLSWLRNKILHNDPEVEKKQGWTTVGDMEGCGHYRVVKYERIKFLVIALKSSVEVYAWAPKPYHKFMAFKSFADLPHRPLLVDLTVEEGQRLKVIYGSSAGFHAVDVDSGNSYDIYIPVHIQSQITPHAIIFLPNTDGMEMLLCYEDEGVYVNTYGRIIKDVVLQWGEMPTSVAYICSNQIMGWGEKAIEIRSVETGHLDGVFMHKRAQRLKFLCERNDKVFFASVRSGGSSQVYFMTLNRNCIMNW

Lyn = system: Lyn
Pim-2 = Pim-2 (Homo sapiens, UniProt Q9P1W9)
Sequence of Pim-2 (Q9P1W9 whole entry): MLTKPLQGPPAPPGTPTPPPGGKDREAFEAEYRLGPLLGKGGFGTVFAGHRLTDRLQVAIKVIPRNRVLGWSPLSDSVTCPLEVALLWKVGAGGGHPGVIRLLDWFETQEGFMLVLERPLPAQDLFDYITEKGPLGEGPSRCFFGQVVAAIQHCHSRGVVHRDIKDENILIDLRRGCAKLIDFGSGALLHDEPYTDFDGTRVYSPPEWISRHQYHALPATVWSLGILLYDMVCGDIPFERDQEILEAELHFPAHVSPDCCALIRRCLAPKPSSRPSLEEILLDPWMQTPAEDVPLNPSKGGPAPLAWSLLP

p70S6K = p70S6K (Homo sapiens, UniProt P23443)
Sequence of p70S6K (P23443 whole entry): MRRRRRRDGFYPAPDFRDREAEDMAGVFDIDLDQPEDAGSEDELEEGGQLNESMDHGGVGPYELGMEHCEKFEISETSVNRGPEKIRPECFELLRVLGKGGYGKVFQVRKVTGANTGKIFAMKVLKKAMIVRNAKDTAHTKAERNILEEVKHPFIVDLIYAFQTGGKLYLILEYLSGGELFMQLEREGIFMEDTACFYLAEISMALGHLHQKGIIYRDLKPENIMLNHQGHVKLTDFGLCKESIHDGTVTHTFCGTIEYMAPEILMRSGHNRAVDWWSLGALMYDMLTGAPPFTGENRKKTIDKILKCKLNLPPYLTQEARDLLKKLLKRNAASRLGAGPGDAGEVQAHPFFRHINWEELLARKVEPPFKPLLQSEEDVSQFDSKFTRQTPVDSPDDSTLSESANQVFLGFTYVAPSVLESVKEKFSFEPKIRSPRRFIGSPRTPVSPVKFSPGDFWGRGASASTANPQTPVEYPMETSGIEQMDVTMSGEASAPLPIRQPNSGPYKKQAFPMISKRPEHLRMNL

Sequence of cSRC (P12931 whole entry): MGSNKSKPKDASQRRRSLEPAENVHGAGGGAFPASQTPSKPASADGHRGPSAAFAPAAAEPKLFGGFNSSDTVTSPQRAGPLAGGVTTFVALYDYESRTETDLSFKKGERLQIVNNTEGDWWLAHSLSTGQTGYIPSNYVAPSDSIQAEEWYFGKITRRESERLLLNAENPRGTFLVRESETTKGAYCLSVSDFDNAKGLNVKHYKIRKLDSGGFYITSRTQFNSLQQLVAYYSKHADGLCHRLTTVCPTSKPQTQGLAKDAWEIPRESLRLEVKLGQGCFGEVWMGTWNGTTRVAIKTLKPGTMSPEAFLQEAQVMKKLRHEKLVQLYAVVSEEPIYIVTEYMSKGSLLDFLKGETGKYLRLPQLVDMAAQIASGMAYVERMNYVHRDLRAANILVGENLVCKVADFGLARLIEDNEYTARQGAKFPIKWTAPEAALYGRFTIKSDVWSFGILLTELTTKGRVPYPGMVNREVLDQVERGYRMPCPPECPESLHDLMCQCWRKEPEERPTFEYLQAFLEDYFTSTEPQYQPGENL

COc1cc(O)c(CC=C(C)C)c(O)c1C(=O)/C=C/c1ccc(O)cc1 [Xanthohumol, xanthohumol] was tested, and the “Kinase activity, % of Control” value (Rsk1; 1 ug/ml) was 34 % of Control, the “Kinase activity, % of Control” value (Rsk1; 5 ug/ml) was 49 % of Control and the “Kinase activity, % of Control” value (Rsk1; 25 ug/ml) was 4 % of Control. The “Kinase activity, % of Control” value (Rsk1; 50 ug/ml) was 0 % of Control, the “Kinase activity, % of Control” value (PKCα; 1 ug/ml) was 100 % of Control and the “Kinase activity, % of Control” value (PKCα; 5 ug/ml) was 100 % of Control. For the same compound, the “Kinase activity, % of Control” value (PKCα; 50 ug/ml) was 83 % of Control, the “Kinase activity, % of Control” value (CDK6/cyclinD3; 1 ug/ml) was 110 % of Control and the “Kinase activity, % of Control” value (CDK6/cyclinD3; 5 ug/ml) was 79 % of Control. For the same compound, the “Kinase activity, % of Control” value (CDK6/cyclinD3; 25 ug/ml) was 23 % of Control, the “Kinase activity, % of Control” value (CDK6/cyclinD3; 50 ug/ml) was 7 % of Control and the “Kinase activity, % of Control” value (cSRC; 1 ug/ml) was 92 % of Control. The “Kinase activity, % of Control” value (cSRC; 5 ug/ml) was 50 % of Control, the “Kinase activity, % of Control” value (cSRC; 25 ug/ml) was 27 % of Control and the “Kinase activity, % of Control” value (cSRC; 50 ug/ml) was 21 % of Control. The “Kinase activity, % of Control” value (Syk; 1 ug/ml) was 95 % of Control, the “Kinase activity, % of Control” value (Syk; 5 ug/ml) was 60 % of Control and the “Kinase activity, % of Control” value (Syk; 25 ug/ml) was 32 % of Control. The “Kinase activity, % of Control” value (Syk; 50 ug/ml) was 17 % of Control, the “Kinase activity, % of Control” value (AMPK; 1 ug/ml) was 122 % of Control and the “Kinase activity, % of Control” value (AMPK; 5 ug/ml) was 113 % of Control. The “Kinase activity, % of Control” value (AMPK; 25 ug/ml) was 90 % of Control, the “Kinase activity, % of Control” value (AMPK; 50 ug/ml) was 81 % of Control and the “Kinase activity, % of Control” value (PhKγ2; 1 ug/ml) was 106 % of Control. The “Kinase activity, % of Control” value (PhKγ2; 5 ug/ml) was 60 % of Control, the “Kinase activity, % of Control” value (PhKγ2; 25 ug/ml) was 11 % of Control and the “Kinase activity, % of Control” value (PhKγ2; 50 ug/ml) was 5 % of Control. For the same compound, the “Kinase activity, % of Control” value (CDK1/cyclinB; 1 ug/ml) was 118 % of Control, the “Kinase activity, % of Control” value (CDK1/cyclinB; 5 ug/ml) was 103 % of Control and the “Kinase activity, % of Control” value (CDK1/cyclinB; 25 ug/ml) was 46 % of Control. For the same compound, the “Kinase activity, % of Control” value (CDK1/cyclinB; 50 ug/ml) was 18 % of Control, the “Kinase activity, % of Control” value (PKBα; 1 ug/ml) was 102 % of Control and the “Kinase activity, % of Control” value (PKBα; 25 ug/ml) was 18 % of Control. For the same compound, the “Kinase activity, % of Control” value (PKBα; 50 ug/ml) was 5 % of Control, the “Kinase activity, % of Control” value (IRAK1; 1 ug/ml) was 129 % of Control and the “Kinase activity, % of Control” value (IRAK1; 5 ug/ml) was 104 % of Control. The “Kinase activity, % of Control” value (IRAK1; 50 ug/ml) was 36 % of Control, the “Kinase activity, % of Control” value (cKit(D816H); 1 ug/ml) was 94 % of Control and the “Kinase activity, % of Control” value (cKit(D816H); 5 ug/ml) was 45 % of Control. The “Kinase activity, % of Control” value (cKit(D816H); 25 ug/ml) was 14 % of Control, the “Kinase activity, % of Control” value (CK1γ3; 1 ug/ml) was 98 % of Control and the “Kinase activity, % of Control” value (CK1γ3; 5 ug/ml) was 51 % of Control. The “Kinase activity, % of Control” value (CK1γ3; 25 ug/ml) was 22 % of Control, the “Kinase activity, % of Control” value (CK1γ3; 50 ug/ml) was 15 % of Control and the “Kinase activity, % of Control” value (PKA; 1 ug/ml) was 105 % of Control. The “Kinase activity, % of Control” value (PKA; 5 ug/ml) was 109 % of Control, the “Kinase activity, % of Control” value (PKA; 25 ug/ml) was 98 % of Control and the “Kinase activity, % of Control” value (PKA; 50 ug/ml) was 21 % of Control. For the same compound, the “Kinase activity, % of Control” value (MSK2; 1 ug/ml) was 126 % of Control, the “Kinase activity, % of Control” value (MSK2; 5 ug/ml) was 61 % of Control and the “Kinase activity, % of Control” value (MSK2; 25 ug/ml) was 8 % of Control. The “Kinase activity, % of Control” value (MSK2; 50 ug/ml) was 19 % of Control, the “Kinase activity, % of Control” value (MINK; 1 ug/ml) was 42 % of Control and the “Kinase activity, % of Control” value (MINK; 5 ug/ml) was 10 % of Control. The “Kinase activity, % of Control” value (MINK; 25 ug/ml) was 5 % of Control, the “Kinase activity, % of Control” value (MINK; 50 ug/ml) was 7 % of Control and the “Kinase activity, % of Control” value (Lyn; 1 ug/ml) was 97 % of Control. For the same compound, the “Kinase activity, % of Control” value (Lyn; 5 ug/ml) was 40 % of Control, the “Kinase activity, % of Control” value (Lyn; 25 ug/ml) was 4 % of Control and the “Kinase activity, % of Control” value (Lyn; 50 ug/ml) was 2 % of Control. The “Kinase activity, % of Control” value (Pim-2; 1 ug/ml) was 104 % of Control, the “Kinase activity, % of Control” value (Pim-2; 5 ug/ml) was 48 % of Control and the “Kinase activity, % of Control” value (Pim-2; 25 ug/ml) was 14 % of Control. For the same compound, the “Kinase activity, % of Control” value (Pim-2; 50 ug/ml) was 6 % of Control, the “Kinase activity, % of Control” value (p70S6K; 1 ug/ml) was 94 % of Control and the “Kinase activity, % of Control” value (p70S6K; 5 ug/ml) was 48 % of Control. The “Kinase activity, % of Control” value (p70S6K; 25 ug/ml) was 19 % of Control and the “Kinase activity, % of Control” value (p70S6K; 50 ug/ml) was 7 % of Control.
